# Key:
# Thymidine phosphorylase = molecular target: T1, Thymidine phosphorylase (Rattus norvegicus, UniProt Q5FVR2); assay: Inhibition of thymidine phosphorylase in T cell lymphomas of Sprague-Dawley rat in presence of 100 uM thymidine and 200 uM phosphate; assay type: cell-based
# T1 sequence (Q5FVR2 whole entry): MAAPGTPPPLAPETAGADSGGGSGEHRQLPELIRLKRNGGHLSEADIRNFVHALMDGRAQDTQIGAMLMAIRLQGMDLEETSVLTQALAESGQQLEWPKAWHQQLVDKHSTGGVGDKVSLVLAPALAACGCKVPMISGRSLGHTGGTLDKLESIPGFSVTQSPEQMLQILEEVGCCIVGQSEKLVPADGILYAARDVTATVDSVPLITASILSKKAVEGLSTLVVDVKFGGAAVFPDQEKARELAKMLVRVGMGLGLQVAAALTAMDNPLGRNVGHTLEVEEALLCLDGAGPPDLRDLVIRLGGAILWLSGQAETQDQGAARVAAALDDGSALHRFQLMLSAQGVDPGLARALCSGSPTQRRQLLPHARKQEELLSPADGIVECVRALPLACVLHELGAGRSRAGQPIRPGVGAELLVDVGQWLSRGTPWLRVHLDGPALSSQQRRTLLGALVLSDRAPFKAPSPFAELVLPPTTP
# [1] = molecular target: T2, Thymidine phosphorylase (Rattus norvegicus) (UniProt Q5FVR2); assay: Inhibition of thymidine phosphorylase in T cell lymphomas of Sprague-Dawley rat assessed as residual activity at 10 uM in presence of 100 uM thymidine and 200 uM phosphate
# T2 sequence (whole entry): T1 sequence (Q5FVR2 whole entry)
Structure (SMILES),IC50 (Thymidine phosphorylase) [nM],Activity [1] [%]
Cc1cn([C@@H]2CN(C(=O)P(=O)(O)O)C[C@H]2O)c(=O)[nH]c1=O,220,4
Cc1cn(CCOC(c2ccccc2)P(=O)(O)O)c(=O)[nH]c1=O (stereo not given),,9
Cc1cn([C@@H]2CN(CP(=O)(O)O)C[C@@H]2O)c(=O)[nH]c1=O,45,1
Cc1cn([C@H]2C[C@H]3O[C@@](c4ccccc4)(P(=O)(O)O)OC[C@H]3O2)c(=O)[nH]c1=O,,47
Cc1cn(C2CCN(C(=S)P(=O)(O)O)C2)c(=O)[nH]c1=O (racemic),190,9
Cc1cn([C@@H]2CN(C(=S)P(=O)(O)O)C[C@@H]2O)c(=O)[nH]c1=O,15,0
Cc1cn(CCOC2(P(=O)(O)O)CCCCC2)c(=O)[nH]c1=O,,21
Cc1cn(C2CCN(C(=O)CP(=O)(O)O)C2)c(=O)[nH]c1=O (racemic),,59
O=c1ccn([C@H]2C[C@@H](CO)N(CP(=O)(O)O)C2)c(=O)[nH]1,,17
Cc1cn(C2CCN(C(=O)P(=O)(O)O)C2)c(=O)[nH]c1=O (racemic),350,3
Cc1cn(CC(OCP(=O)(O)O)Oc2ccccc2)c(=O)[nH]c1=O (stereo not given),750,1
Cc1cn([C@@H]2CN(C(=O)P(=O)(O)O)C[C@@H]2O)c(=O)[nH]c1=O,11,0
Cc1cn(CCOC2(P(=O)(O)O)CCCC2)c(=O)[nH]c1=O,,14
Cc1cn([C@H]2C[C@H](CO)N(C(=O)P(=O)(O)O)C2)c(=O)[nH]c1=O,45,2
Cc1cn(C2CCN(CP(=O)(O)O)C2)c(=O)[nH]c1=O (racemic),,29
Cc1cn([C@H]2C[C@H]3O[C@](CBr)(P(=O)(O)O)OC[C@H]3O2)c(=O)[nH]c1=O,,20
C=CCOC(Cn1cc(C)c(=O)[nH]c1=O)OCP(=O)(O)O (stereo not given),300,10
Cc1cn([C@H]2C[C@H](CO)N(CP(=O)(O)O)C2)c(=O)[nH]c1=O,250,0
Cc1cn([C@H]2C[C@H]3O[C@@](CBr)(P(=O)(O)O)OC[C@H]3O2)c(=O)[nH]c1=O,,26
Cc1cn([C@H]2C[C@H]3O[C@](c4ccccc4)(P(=O)(O)O)OC[C@H]3O2)c(=O)[nH]c1=O,,4

# From ChEMBL document CHEMBL1159101, “Structural diversity of nucleoside phosphonic acids as a key factor in the discovery of potent inhibitors of rat T-cell lymphoma thymidine phosphorylase” (Bioorg Med Chem Lett, 2010)
